Here are results for one molecule from BindingDB's records for doi:10.1021/jm8011036 (Glaxosmithkline, 2008).

The target in this test is Casein kinase I isoform alpha (Homo sapiens, UniProt P48729). Description: Binding affinity to human CK1alpha2.

As usually defined, the Kd is the constant that tells how readily two partners part at equilibrium. The low end stands for higher affinity, the high end for lower affinity.

Sequence of Casein kinase I isoform alpha (P48729 whole entry, canonical isoform): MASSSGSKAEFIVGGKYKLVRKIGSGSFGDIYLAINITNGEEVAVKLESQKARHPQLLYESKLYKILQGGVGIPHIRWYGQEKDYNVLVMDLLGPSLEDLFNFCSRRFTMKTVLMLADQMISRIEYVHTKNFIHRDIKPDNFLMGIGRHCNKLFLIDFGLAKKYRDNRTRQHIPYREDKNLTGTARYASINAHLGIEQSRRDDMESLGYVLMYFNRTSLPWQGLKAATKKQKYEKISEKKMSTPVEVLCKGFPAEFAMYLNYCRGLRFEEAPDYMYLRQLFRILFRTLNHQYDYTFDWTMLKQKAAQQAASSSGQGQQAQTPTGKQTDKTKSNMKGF

For the molecule `CC(=O)c1c(-c2ccncc2)[nH]c(-c2ccncc2)c1C` [1-(4-methyl-2,5-di(pyridin-4-yl)-1H-pyrrol-3-yl)ethanone], the Kd is 225 nM.
